This note sets out measurements from US20240140947A1, “COMPOUND FOR THE TREATMENT OF CANCER” (priority 2022, published 2024).

The target in one series is T1, CDK4/Cyclin D1 (Homo sapiens, UniProt P11802).
T1 construct: 2007 E1/2008+PO4
The series is described as follows: CDK4/Cyclin D1 mobility shift assay. It counts as biochemical. As to conditions: geometric mean, 3.5 mM ATP. As for the experimental part: The mobility shift assay electrophoretically separates the fluorescently labeled peptides (substrate and phosphorylated product) following the kinase reaction. Both substrate and product are measured and the ratio of these values is used to generate % Conversion of substrate to product by the LabChip EZ Reader.
K, determinations were made from a plot of the fractional velocity as a function of inhibitor concentration fit to the Morrison equation with the enzyme concentration as a variable.

Series [1] can be described thus: Rat i.v. pharmacokinetic study. Type of series: in vivo. As for the experimental part: Rat PK studies were done at Pfizer (Groton, CT) or BioDuro Pharmaceutical Product Development Inc. (Shanghai, PRC); Jugular vein-cannulated male Wistar-Hannover rats were purchased from Charles River Laboratories, Inc. (Wilmington, MA) or Vital River (Beijing, China) and were typically 7-10 weeks of age at the time of dosing. During the pharmacokinetic studies all animals were housed individually. Access to food and water was provided ad libitum. Compounds were administered i.v. via the tail vein (n=2 or 3), dosed as a 1 mg/ml solution using standard compatible excipients at 1 mL/kg for a resulting dose of […]. Serial blood samples were collected via the jugular vein cannula at predetermined timepoints after dosing. Animals were monitored for pain or distress throughout the study, with at least daily monitoring during normal husbandry prior to study start. At the completion of the study, animals were euthanized by overdose of inhaled anesthesia followed by exsanguination. […] Plasma samples from the animal PK studies were processed using protein precipitation with acetonitrile: methanol (1:1) containing internal standard verapamil followed by quantitation by LC-MS/MS against a standard curve prepared in blank plasma. Pharmacokinetic parameters were calculated using noncompartmental analysis (Watson v.7.5, Thermo Scientific).

T1 sequence (P11802 whole entry): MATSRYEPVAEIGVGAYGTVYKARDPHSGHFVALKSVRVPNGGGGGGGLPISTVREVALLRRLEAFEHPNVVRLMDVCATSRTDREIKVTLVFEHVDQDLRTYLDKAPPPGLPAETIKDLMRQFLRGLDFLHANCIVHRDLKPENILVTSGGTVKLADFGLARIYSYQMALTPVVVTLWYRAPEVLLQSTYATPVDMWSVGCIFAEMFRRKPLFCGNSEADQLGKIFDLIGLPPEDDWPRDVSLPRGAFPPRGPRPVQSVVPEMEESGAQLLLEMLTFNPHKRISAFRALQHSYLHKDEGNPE
T1 sequence (P24385 whole entry partner): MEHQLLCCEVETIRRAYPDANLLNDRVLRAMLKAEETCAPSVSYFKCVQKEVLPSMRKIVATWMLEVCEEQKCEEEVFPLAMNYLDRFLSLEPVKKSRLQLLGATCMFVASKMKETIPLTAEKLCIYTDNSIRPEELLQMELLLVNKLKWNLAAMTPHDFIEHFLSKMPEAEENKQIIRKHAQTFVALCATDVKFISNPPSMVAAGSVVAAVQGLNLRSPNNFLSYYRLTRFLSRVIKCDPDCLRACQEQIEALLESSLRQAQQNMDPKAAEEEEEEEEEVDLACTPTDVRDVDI

Regarding `C[C@@]1(O)CCC[C@H]1n1c(=O)c(CC(F)F)cc2cnc(NC3CCN(S(N)(=O)=O)CC3)nc21` [Compound 1, 4-({6-(2,2-difluoroethyl)-8-[(1R,2R)-2-hydroxy-2-methylcyclopentyl]-7-oxo-7,8-dihydropyrido[2,3-d]pyrimidin-2-yl}amino)piperidine-1-sulfonamide], at CDK4/Cyclin D1, the Ki was 0.79 nM. Further, the “Rat Vdss unbound: (Rat plasma Vdss/rat plasma fu)” value in series [1] was 10.8 L/kg. Besides, in series [1] (rat, plasma, iv, 2 mg/kg, male Wistar-Hannover rats, read-out: Rat Vdss), the Vd was 1.5 L/kg.
